Experimental data taken from patent publication US11124510B2, “Alkyl chain modified imidazoquinoline TLR7/8 agonist compounds and uses thereof” (Dynavax Technologies Corporation, priority 2017, dated 2021).

Tests used:
[1] = biological target: TLR7 (Homo sapiens (Human), UniProt Q9NYK1); experiment: TLR7 agonist bioactivity: induction of IFNα protein in pDC-enriched PBMC cultures (ELISA, 24 h); format: cell-based; settings: less potent than IMDQ
Protocol: Plasmacytoid dendritic cell (pDC)—enriched peripheral blood mononuclear cells (PBMCs) were prepared from the blood of a series of human donors (3-5 donors/experiment). PBMCs were isolated using Ficoll-Paque Premium® (GE Healthcare, Chicago Ill.) using methods well known to those in the art. pDCs were magnetically isolated from the total recovered PBMC population using CD304 (BDCA-4/Neuropilin-1) microbeads (Miltenyi Biotec, San Diego Calif.), according to the manufacturer's instructions. Isolated pDCs were then added back to between 1 and 2×10^8 of the corresponding donor's PBMCs for relative enrichment of this cell type. […] Culture supernatants were collected and interferon-alpha (IFNα) protein levels were measured by ELISA (MabTech, Cincinnati Ohio), according to the manufacturer's instructions.

[2] = biological target: TLR8 (Homo sapiens (Human), UniProt Q9NR97); experiment: TLR8 agonist bioactivity: induction of TNFα protein in monocyte cultures (ELISA, 24 h); format: cell-based
Protocol: Monocytes were magnetically isolated from PBMCs, prepared as described above, following labeling with CD14 microbeads (Miltenyi Biotec, San Diego Calif.), according to the manufacturer's instructions. […] Culture supernatants were collected and tumor necrosis factor alpha (TNFα) protein levels were measured by ELISA (MabTech, Cincinnati Ohio), according to the manufacturer's instructions.

[3] = tested on: serum IL-6 and IL-12p40; experiment: In vivo systemic immune activation assay: serum IL-6 and IL-12p40 by ELISA after single subcutaneous injection; parameters: species or system mice; settings: for serum IL-6 / serum IL-12p40: 5 μg subcutaneously in footpad, 95% sesame oil/5% ethanol, ± SEM
Protocol: Small molecule TLR7 and TLR7/8 agonists derived from the 1H-imidazo[4,5-c]quinoline privileged template (see e.g., Imiquimod, Resiquimod) are known to rapidly distribute to the systemic compartment following intratumoral, subcutaneous, or intramuscular injection. Broad systemic distribution of these agonist compounds in wild-type mice induces TLR7-dependent cytokine responses, primarily in spleen and liver cells, which can subsequently be detected in the serum within 3-6 hours. The rapid increase in serum cytokine biomarkers (e.g., IL-6 and IL-12p40) can be used to assess the kinetics of systemic distribution of a locally administered TLR agonist.
The kinetics of distribution of pharmaceutical compositions comprised of Compound Nos. 63-00, 63-17, or 63-10 formulated in 95% sesame oil/5% ethanol (v/v) were assessed following a single subcutaneous injection in wild-type mice. All in vivo procedures were conducted in accordance with approved Institutional Animal Care and Use Committee (IACUC) protocols. The animals were housed in a facility that is accredited by the Association for Accreditation and Laboratory Animal Care (AALAC, Frederick Md.). Wild-type female BALB/c mice (15-20 gm) were obtained from Envigo (Hayward, Calif.) and acclimated for 2-3 days prior to use.
The pharmaceutical compositions were made with the three compounds, at a final concentration of 200 μg/mL, in a manner similar to that described in Example B2-1. At T=0, groups of 3 mice were anesthetized with 1% isoflurane and injected subcutaneously in the right footpad with 5 μg of each of the three compounds, or a vehicle control, in 25 uL of 95% sesame oil/5% ethanol (v/v). Then, at T=3, 6, and 24 hours, three animals from each group were anesthetized with 1% isoflurane to facilitate blood collection by cardiac puncture. Samples were processed to serum, and stored at −20° C. for further analysis.

[4] = tested on: CT26 colon carcinoma; experiment: Anti-tumor efficacy, repeated intratumoral dosing in CT26 colon carcinoma-bearing wild-type mice; format: in vivo; settings: 0.5-20 μg in 95% sesame oil/5% ethanol
Protocol: The effect of repeated weekly doses of intratumorally delivered pharmaceutical compositions comprised of Compound No. 63-10, 63-18, or 63-33 formulated in 95% sesame oil/5% ethanol (v/v) on tumor growth inhibition was assessed in syngeneic CT26 colon carcinoma-bearing Balb/c mice. All in vivo procedures were conducted in accordance with approved Institutional Animal Care and Use Committee (IACUC) protocols. The animals were housed in a facility that is accredited by the Association for Accreditation and Laboratory Animal Care (AALAC, Frederick, Md.). Wild-type female Balb/c mice (15-20 gm) were obtained from Envigo (Hayward, Calif.) and acclimated for 2-3 days prior to use.
The pharmaceutical compositions were made with the three compounds at final concentrations of 5, 50, and 200 μg/mL in a manner similar to that described in Example B2-1. […] On day 0, mice were anesthetized with 1% isoflurane and 80,000 CT26 tumor cells in 200 uL of RMPI-1640 culture media plus 2.5% fetal bovine serum were injected subcutaneously in the right flank. Tumors were allowed to grow until they were ˜35 mm^3, at which point animals were assigned to groups to begin treatment. Mice were injected weekly for 4 weeks intratumorally with 100 uL of a pharmaceutical composition comprising 20, 5, or 0.5 μgs of Compound No. 63-10, or 20 or 5 μgs of Compound Nos. 63-18, or 63-33 formulated in 95% sesame oil/5% ethanol (v/v), or a vehicle control, twice weekly for 3 weeks (experimental days 9, 12, 16, 19, 23, and 26). The TLR9 CpG agonist was injected intratumorally with 100 μL of a pharmaceutical composition comprised of 50 μgs of compound formulated in phosphate buffered saline on the same dosing schedule. Tumor sizes were measured twice weekly from days 8 through day 30 with calipers, with tumor volumes calculated using the formula: length, multiplied by width, multiplied by width, divided by 2.

Chain of TLR8 (Q9NR97 27-1041): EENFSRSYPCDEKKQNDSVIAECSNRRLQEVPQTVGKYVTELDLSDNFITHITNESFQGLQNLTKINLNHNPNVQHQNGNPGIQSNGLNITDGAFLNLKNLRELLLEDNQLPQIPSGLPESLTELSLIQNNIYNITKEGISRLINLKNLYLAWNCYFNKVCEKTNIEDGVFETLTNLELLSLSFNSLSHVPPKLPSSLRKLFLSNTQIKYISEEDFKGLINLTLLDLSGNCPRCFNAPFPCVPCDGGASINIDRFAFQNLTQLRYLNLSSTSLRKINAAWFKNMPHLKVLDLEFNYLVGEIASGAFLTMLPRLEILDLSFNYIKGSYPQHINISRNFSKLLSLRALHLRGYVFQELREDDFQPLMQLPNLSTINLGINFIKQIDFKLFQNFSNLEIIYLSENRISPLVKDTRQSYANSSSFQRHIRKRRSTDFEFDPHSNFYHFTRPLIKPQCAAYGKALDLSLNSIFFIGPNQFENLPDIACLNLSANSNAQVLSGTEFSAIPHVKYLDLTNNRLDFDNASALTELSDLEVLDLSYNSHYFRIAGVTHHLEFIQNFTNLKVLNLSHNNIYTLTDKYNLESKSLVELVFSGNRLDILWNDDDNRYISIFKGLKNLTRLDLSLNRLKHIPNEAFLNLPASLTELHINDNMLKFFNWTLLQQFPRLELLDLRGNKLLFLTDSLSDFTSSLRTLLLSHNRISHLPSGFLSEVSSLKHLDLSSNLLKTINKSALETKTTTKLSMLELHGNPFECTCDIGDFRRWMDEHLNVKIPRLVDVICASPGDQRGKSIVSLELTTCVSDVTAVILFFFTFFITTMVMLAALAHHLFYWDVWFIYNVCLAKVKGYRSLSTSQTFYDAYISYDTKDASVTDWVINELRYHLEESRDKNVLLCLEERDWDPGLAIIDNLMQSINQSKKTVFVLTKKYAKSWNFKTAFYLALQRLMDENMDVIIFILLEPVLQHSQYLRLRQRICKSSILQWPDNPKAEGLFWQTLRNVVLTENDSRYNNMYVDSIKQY
Chain of TLR7 (Q9NYK1 27-1049): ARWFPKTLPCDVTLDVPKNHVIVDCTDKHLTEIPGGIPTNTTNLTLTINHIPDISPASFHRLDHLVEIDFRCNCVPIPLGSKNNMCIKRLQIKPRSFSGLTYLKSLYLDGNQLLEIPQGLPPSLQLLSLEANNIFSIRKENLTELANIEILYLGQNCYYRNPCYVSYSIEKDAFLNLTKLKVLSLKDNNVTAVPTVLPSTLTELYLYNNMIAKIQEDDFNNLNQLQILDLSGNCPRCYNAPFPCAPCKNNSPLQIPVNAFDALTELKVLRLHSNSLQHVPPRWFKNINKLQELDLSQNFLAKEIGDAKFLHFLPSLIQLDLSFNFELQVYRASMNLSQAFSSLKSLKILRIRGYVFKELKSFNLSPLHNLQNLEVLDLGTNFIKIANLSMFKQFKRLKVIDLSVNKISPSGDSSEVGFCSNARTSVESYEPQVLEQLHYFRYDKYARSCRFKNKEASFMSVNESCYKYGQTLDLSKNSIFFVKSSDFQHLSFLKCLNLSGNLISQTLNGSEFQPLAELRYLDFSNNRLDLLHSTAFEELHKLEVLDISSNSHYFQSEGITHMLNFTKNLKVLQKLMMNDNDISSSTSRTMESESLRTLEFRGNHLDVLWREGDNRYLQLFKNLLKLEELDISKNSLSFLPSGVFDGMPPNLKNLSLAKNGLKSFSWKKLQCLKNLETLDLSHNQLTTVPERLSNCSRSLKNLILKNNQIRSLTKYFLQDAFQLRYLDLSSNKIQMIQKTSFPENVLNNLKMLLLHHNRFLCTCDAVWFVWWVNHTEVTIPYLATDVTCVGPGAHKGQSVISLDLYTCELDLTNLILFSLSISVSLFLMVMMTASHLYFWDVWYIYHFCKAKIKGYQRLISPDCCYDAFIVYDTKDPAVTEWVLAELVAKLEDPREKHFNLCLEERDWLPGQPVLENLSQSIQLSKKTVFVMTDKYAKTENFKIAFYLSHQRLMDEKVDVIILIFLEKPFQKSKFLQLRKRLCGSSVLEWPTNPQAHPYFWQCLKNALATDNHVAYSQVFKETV

Compound: CCCCCCCCCCCCCC(=O)NCc1ccc(Cn2c(CCCC)nc3c(N)nc4ccccc4c32)cc1 [Compound No. 63-10, N-(4-((4-amino-2-butyl-1H-imidazo[4,5-c]quinolin-1-yl)methyl)benzyl)tetradecanamide]
- fold loss of TLR7 agonist potency compared to Compound No. 63-00 (IMDQ) [1]: 2 fold
- EC50 ([2]; TNFα induction, human monocytes, 24 hours): 522 nM
- fold loss of TLR8 agonist potency compared to Compound No. 63-00 (IMDQ) ([2]; less potent than IMDQ): 2.4 fold
- serum IL-6 ([3]; 3 hours): 49 ± 32 pg/mL
- serum IL-12p40 ([3]; 3 hours): 1,012±246 pg/mL
- serum IL-6 ([3]; 6 hours): 33 ± 4 pg/mL
- serum IL-12p40 ([3]; 6 hours): 2,179±597 pg/mL
- serum IL-6 ([3]; 24 hours): 32 ± 2 pg/mL
- serum IL-12p40 ([3]; 24 hours): 2,436±237 pg/mL
- increase in serum cytokines ([3]; at 3, 6, or 24 hours, 5 μg subcutaneously): no detectable increase
- CT26 tumor growth control compared to the vehicle control [4]: robust CT26 tumor growth control
